# Laboratory results from US5164411A, “Pyrethroid compositions” (priority 1991, dated 1992).
# Key:
# [1] = Ninety-six-hour flow-through acute toxicity, sheepshead minnow; format: in vivo, Cyprinodon variagatus; settings: 96 h flow-through, filtered seawater
# Method: (§1) Ninety-six-hour flow-through acute toxicity studies of both cypermethrin and sigma-cypermethrin were conducted in the rainbow trout (Oncorhynchus mykiss) and in the sheepshead minnow (Cyprinodon variagatus) to determine the median-lethal-concentration (LC50) resulting from continuous exposure. For the rainbow trout the exposure medium was well water; for the sheepshead minnow, filtered seawater. Each group of 20 fish (10 per replicate aquarium) was exposed either to one of five concentrations of pyrethroid delivered in a diluter system in dimethylformamide (DMF), to 30 μL/L DMF in the exposure medium (solvent control), or to the exposure medium alone (control). Observations for mortality, morbidity, and other overt signs of toxicity were determined at prescribed intervals. Concentrations of the test materials were measured at the beginning and end of the exposure using a validated HPLC method. The cypermethrin isomer content (weight %) of the sigma-cypermethrin technical product used in this study was total isomers--88.2%, S-isomers--82%, cis/trans ratio--53/47.
# [2] = system: cabbage looper (Trichoplusia ni); experiment: Foliar evaluation, cabbage looper (CL); format: in vivo; settings: for LC50: Trichoplusia ni, foliar, pinto beans, mortality at 48 hours
# Method: (§2) Cypermethrin and sigma-cypermethrin were tested by foliar application at various concentrations in aqueous solutions containing 9.75% acetone and 0.25% octylphenoxypolyethoxyethanol. Insect species utilized included the cabbage looper (Trichoplusia ni), southern armyworm (Spodoptera eridania), Mexican bean beetle (Epilachna varivestis), tobacco budworm (Heliothis virescens), and corn earworm (Heliothis zea).
# (§3) For all insects, pinto beans (Phaseolus vulgaris) plants were treated with the test solutions. The test solutions were applied with a sprayer to the upper and lower surfaces of the plant leaves to runoff. The plants were then allowed to dry and were severed at the base of the stem before being placed in cups. Ten second instar individuals of the appropriate insect species, except the tobacco budworm and corn earworm, were placed in each cup and the cup covered. Tests with the tobacco budworm and corn earworm used four replicates with each replicate containing five second instar insects. In all tests, mortality was read 48 hours later. The sigma-cypermethrin used in the foliar evaluations was the product of Example 2.
# cabbage looper = experiment: Field trials on lettuce, control of cabbage looper; format: in vivo, Trichoplusia ni
# Description: (§4) Field trials conducted on lettuce in California for evaluation of the control of cabbage looper consisted of a randomized complete block design of four replications per treatment. Applications were made to small plots with CO2 backpack sprayer using a minimum of 10 gallons per acre. Results were converted to percent control based on untreated check plots.
# rats = experiment: 90-day feeding study; format: in vivo; settings: for no observable effect level (NOEL): in diet, at least ninety days
# Method: In the 90-day feeding study, conducted in compliance with EPA guideline 82-1, the compound under test was administered continuously in the diet to groups of rats for at least ninety days at concentrations of 0, 150, and 1500 ppm to groups of fifteen Sprague-Dawley rats for cypermethrin and 0, 10, 50, 150, 250, 500, and 900 ppm to groups of ten Fisher 344 rats for sigma-cypermethrin. (The rates for sigma-cypermethrin were lower, because it was expected to be more toxic than cypermethrin.) The cypermethrin isomer content (weight %) of the sigma-cypermethrin technical product used in this study was total isomers--88.2%, S-isomers--82%, cis/trans ratio--53/47. Individual body weight and food consumption values were recorded weekly. At termination, hematology and clinical chemistry determinations were conducted and organ weights were obtained for adrenals, brain, heart, kidneys, liver, and ovaries or testes. Histopathological examination of approximately 40 tissues was conducted on all animals in the control group and in the highest dose group in the cypermethrin study and in the highest two groups (500 and 900 ppm) in the sigma-cypermethrin study. In addition, histopathological examination was performed on the lungs, liver, and kidneys of animals in the mid-dose groups of both studies ([…] and 10, 50, 150, and 250 ppm for sigma-cypermethrin). An ophthalmic examination was conducted on all animals prior to initiation of treatment and prior to final sacrifice.
# [3] = Ninety-six-hour flow-through acute toxicity, rainbow trout; format: in vivo, Oncorhynchus mykiss; settings: 96 h flow-through, well water
# Method: as §1
# [4] = system: southern armyworm (Spodoptera eridania); experiment: Foliar evaluation, southern armyworm (SAW); format: in vivo; settings: for LC50: Spodoptera eridania, foliar, pinto beans, mortality at 48 hours
# Method: as §2, §3
# [5] = system: sheepshead minnow (Cyprinodon variagatus); experiment: Ninety-six-hour flow-through acute toxicity, sheepshead minnow; format: in vivo
# Method: as §1
# Lepidoptera = experiment: Foliar evaluation, average over Lepidoptera; format: in vivo; settings: laboratory
# Method: as §2, §3
# certain insect species = experiment: Insecticidal activity, overall statement; format: in vivo
# Method: as §2, §3
# target crop insects = experiment: Field trials, overall statement; format: in vivo; settings: at half the rate of cypermethrin, or even lower
# Description: Field trials conducted on cotton in Louisiana, Mississippi, Alabama, and Arizona consisted of a randomized complete block design of four replications per treatment. Plots were a minimum of 0.2 acres, and all applications were by commercial ground equipment with a minimum of 10 gallons total spray solution per acre. The cypermethrin isomer content (weight %) of the several sigma-cypermethrin technical products used in the field trials were as follows:
# Analysis of the data was based on a seasonal average of multiple evaluations taken over a four to six week period (3-4 applications) in trials for control of Heliothis sp.
# as §4
# Field trials were conducted in Louisiana, North Carolina, Texas, Kentucky, Tennessee, and Illinois to evaluate the control of alfalfa weevil (Hypera postica). Small plot trials were used in a randomized block design with four replications per treatment. Applications were made with CO2 backpack sprayers. […]
smiles,measurement,setting,value
"CC1(C)C(C=C(Cl)Cl)C1C(=O)OC(C#N)c1cccc(Oc2ccccc2)c1 (stereo not drawn) [cypermethrin, (cyano)(3-phenoxyphenyl)methyl 3-(2,2-dichloroethenyl)-2,2-dimethylcyclopropanecarboxylate, reference compound]",LC50 at 96 h,[1],0.00388 µg/mL
same,LC50,[2],2.3 µg/mL
same,% Cabbage Looper Control,"cabbage looper; Year 1, 0.06 lb ai/A, 3 DAT, average of 2 trials (CA)",61%
same,% Cabbage Looper Control,"cabbage looper; Year 1, 0.06 lb ai/A, 7 DAT, average of 2 trials (CA)",78%
same,% Cabbage Looper Control,"cabbage looper; Year 2, 0.06 lb ai/A, 3 DAT, 1 trial (CA)",94%
same,% Cabbage Looper Control,"cabbage looper; Year 2, 0.06 lb ai/A, 7 DAT, 1 trial (CA)",81%
same,no observable effect level (NOEL),rats,150 ppm
same,LC50 at 96 h,[3],0.000897 µg/mL
same,LC50,[4],4.2 µg/mL
"CC1(C)C(C=C(Cl)Cl)C1C(=O)O[C@H](C#N)c1cccc(Oc2ccccc2)c1 (mixture of isomers) [sigma-cypermethrin, (S)(cyano)(3-phenoxyphenyl)methyl cis/trans-3-(2,2-dichloroethenyl)-2,2-dimethylcyclopropanecarboxylate]",ratio of the cypermethrin LC50 to the sigma-cypermethrin LC50,[5],1.64
same,LC50 at 96 h,[1],0.00237 µg/mL
same,LC50,[2],1.4 µg/mL
same,Relative Potency,"[2]; vs cypermethrin, CL",1.6
same,% Cabbage Looper Control,"cabbage looper; Year 1, 0.026 lb ai/A, 3 DAT, average of 2 trials (CA)",83%
same,% Cabbage Looper Control,"cabbage looper; Year 1, 0.026 lb ai/A, 7 DAT, average of 2 trials (CA)",90%
same,% Cabbage Looper Control,"cabbage looper; Year 2, 0.013 lb ai/A, 3 DAT, 1 trial (CA)",98%
same,% Cabbage Looper Control,"cabbage looper; Year 2, 0.013 lb ai/A, 7 DAT, 1 trial (CA)",71%
same,% Cabbage Looper Control,"cabbage looper; Year 2, 0.026 lb ai/A, 3 DAT, 1 trial (CA)",98%
same,% Cabbage Looper Control,"cabbage looper; Year 2, 0.026 lb ai/A, 7 DAT, 1 trial (CA)",91%
same,% Cabbage Looper Control,"cabbage looper; Year 2, 0.039 lb ai/A, 3 DAT, 1 trial (CA)",100%
same,% Cabbage Looper Control,"cabbage looper; Year 2, 0.039 lb ai/A, 7 DAT, 1 trial (CA)",98%
same,average effectiveness relative to cypermethrin,Lepidoptera,1.9 times
same,amount required to show an effect on rats relative to that expected from effect on insects,rats; 90-day feeding,more than three times
same,NOEL relative to the cypermethrin value,"rats; 90-day feeding, rats",more than one and a half times the cypermethrin value
same,no observable effect level (NOEL),rats,250 ppm
same,effectiveness relative to cypermethrin,certain insect species,twice as effective as cypermethrin
same,LC50 at 96 h,[3],0.00069 µg/mL
same,field results relative to cypermethrin,target crop insects,generally gave results essentially equivalent to that obtained with cypermethrin applied at the recommended rate
same,LC50,[4],1.8 µg/mL
same,Relative Potency,"[4]; vs cypermethrin, SAW",2.3
